Results from patent publication US20240099295A1, “CELL TREATMENT AGENT” (AYA Inc., priority 2021, published 2024).

How the values were obtained:
Type in all cases: cell-based
[1] = system: human amnion-derived mesenchymal stem cells; assay: Differentiation state maintenance: marker positive rate by flow cytometry; details: DS 0.1 mg/mL in serum-free cell culture solution, 5 days of culture
Protocol: Using dextran sulfate (DS) as an active ingredient of the cell treatment agent, the cell dormancy effect by DS was considered according to the effect of preventing differentiation by maintaining the cells in an undifferentiated state, as an index. As the cells, human amnion-derived mesenchymal stem cells in an undifferentiated state were used. Using a normal serum-free cell culture solution as a conditioning solution, a cell preservation solution a was prepared by adding DS to the conditioning solution at 0.1 mg/ml, and a cell preservation solution b was prepared by adding FBS to the conditioning solution at 10%. To each of the cell preservation solutions a and b, the aforementioned stem cells were added at 10^5 cells/ml, respectively, and then cultured for 5 days under normal cell culture conditions (37° C., CO2 concentration of 5%, humidity of 100%). The degrees of differentiation of stem cells before culture and after 5 days of culture were evaluated and compared by flow cytometry. The method followed the method described in Masoumeh Fakhr Taha, Vahideh Hedayati “Isolation, identification and multipotential differentiation of mouse adipose tissue-derived stem cells” Tissue and Cell 42 (2010) 211-216. The evaluation was made according to CD29 and CD44 as undifferentiation markers and CD11b, CD31, and CD45 as markers of differentiation into mesenchymal cells.

[2] = system: Rat corneal epithelial cell; assay: Cell protective effect: cell survival during preservation (trypan blue excretion test); details: for Average survival rate at 72 hours: refrigerator 4° C.; for Average survival rate at 24 hours: normal temperature (22° C.)
Protocol: Using a normal serum-free cell culture solution without FBS or a Ringer's solution (Otsuka Pharmaceutical Co., Ltd., Lactec Injection, Japanese Pharmacopoeia, Sodium L-lactate Ringer's solution) as a conditioning solution for use, for example, in preservation and transportation of cells, sodium alginate (Na alginate) (Fuji Chemical Industry Co., Ltd. Snow Algin SSL, viscosity of 1% aqueous solution is 30 mPa·s at 20° C.) was added to the conditioning solution in the concentrations shown in Table 1 to prepare cell preservation solutions. To each cell preservation solution, the above-described cells were added at a concentration of 10^6 cells/ml to satisfy the conditions shown in Table 1, and the resultant solution was left to stand in a room at normal temperature (22° C.) for 24 hours, and then whether cells were alive or dead was determined, and rates of viable cells (average survival rate (%)) were calculated and compared. Cell viability was determined by the trypan blue excretion test that is the ordinary method of confirming cell viability. The excretion test was performed according to the method described in “Denizot F., et al., Rapid colorimetric assay for cell growth and survival. Modifications to the tetrazolium dye procedure giving improved sensitivity and reliability. J. Immunol. Methods, 89, 271-277 (1986)”. The results are of N=4.
The average survival rate (%) was determined in the same manner as in Experimental Example (1-1-1) except that the preservation conditions were changed to leaving still for 72 hours in a refrigerator at a set temperature of 4° C. The results are of N=4.
The average survival rate (%) of cells was determined in the same manner as in Experimental Example (1-1-1) except that dextran sulfate (dextran sulfate special grade reagent available from NACALAI TESQUE, INC.) was used instead of sodium alginate and the conditions were as shown in Table 3. The results are of N=4.
The average survival rate (%) of cells was determined in the same manner as in Experimental Example (1-2-1) except that the preservation conditions were changed to leaving still for 72 hours in a refrigerator at a set temperature of 4° C. and to conditions shown in Table 4. The results are of N=3 in the case of using a serum-free cell culture solution, and are of N=4 in the case of using a Ringer's solution.
The average survival rate (%) of cells was determined in the same manner as in Experimental Example (1-1-1) except that heparin sodium (Heparin Na Mochida, unfractionated heparin, available from Mochida Pharmaceutical Co., Ltd.) was used instead of alginic acid and the conditions were as shown in Table 5. The results are of N=4.
The average survival rate (%) of cells was determined in the same manner as in Experimental Example (1-3-1) except that the preservation conditions were changed to leaving still for 72 hours in a refrigerator at a set temperature of 4° C. and to conditions shown in Table 6. The results are of N=4.
The average survival rate (%) of cells was determined in the same manner as in Experimental Example (1-3-2) except that urinastatin (Miraclid injection solution, containing 2.5 million units, available from Mochida Pharmaceutical Co., Ltd.) was used as a proteolytic enzyme inhibitor instead of heparin sodium and the conditions were as shown in Table 7. The results are of N=4. “Unit (U)” in the unit of concentration (units/mL) of inhibitor a in Table 7 can be measured, for example, by the quantitative method of urinastatin in the Japanese Pharmacopoeia 15th revision. Specifically, absorbance at 405 nm of a sample solution is measured with a UV 240 spectrophotometer, and concentration of urinastatin can be calculated from a calibration curve prepared in advance. […]

[3] = system: Chinese hamster fibroblasts; assay: Cell detaching and suspending effect (Experimental Example 4); details: same experiment as Table 13 with Chinese hamster fibroblasts

dextran sulfate [DS]
Positive rate of marker CD11b after culture ([1]; differentiation marker): 19.8% | Positive rate of marker CD31 after culture ([1]; differentiation marker): 8.3% | Positive rate of marker CD45 after culture ([1]; differentiation marker): 7.3% | Positive rate of marker CD29 after culture ([1]; undifferentiation marker): 98.7% | Positive rate of marker CD44 after culture ([1]; undifferentiation marker): 62.3% | Average survival rate at 72 hours ([2]; DS 0.003 mg/mL, Ringer's solution): 67% | Average survival rate at 24 hours ([2]; DS 0.003 mg/mL, serum-free cell culture solution): 62% | Average survival rate at 72 hours ([2]; DS 0.003 mg/mL, serum-free cell culture solution, N=3): 76% | Average survival rate at 72 hours ([2]; DS 0.1 mg/mL, Ringer's solution): 71% | Average survival rate at 24 hours ([2]; DS 0.1 mg/mL, serum-free cell culture solution): 71% | Average survival rate at 72 hours ([2]; DS 0.1 mg/mL, serum-free cell culture solution, N=3): 79% | Average survival rate at 72 hours ([2]; DS 1 mg/mL, Ringer's solution): 60% | Average survival rate at 24 hours ([2]; DS 1 mg/mL, serum-free cell culture solution): 73% | Average survival rate at 72 hours ([2]; DS 1 mg/mL, serum-free cell culture solution, N=3): 73% | Detachment and suspension of adherent cells [3]: equivalent results were obtained

heparin sodium [Heparin Na, reference compound]
Average survival rate at 72 hours ([2]; Heparin Na 5 units/mL, Ringer's solution): 70% | Average survival rate at 24 hours ([2]; Heparin Na 5 units/mL, serum-free cell culture solution): 69% | Average survival rate at 72 hours ([2]; Heparin Na 25 units/mL, Ringer's solution): 72% | Average survival rate at 24 hours ([2]; Heparin Na 25 units/mL, serum-free cell culture solution): 75% | Average survival rate at 72 hours ([2]; Heparin Na 125 units/mL, Ringer's solution): 74% | Average survival rate at 24 hours ([2]; Heparin Na 125 units/mL, serum-free cell culture solution): 76%
